These results are taken from patent US10550102B2, “Indane and indoline derivatives and the use thereof as soluble guanylate cyclase activators” (NOVARTIS AG, priority 2014, dated 2020).

The target of the experiment is soluble guanylate cyclase (human GUCYA3 and GUCYB3) overexpressed in CHO cells (Homo sapiens (Human), UniProt Q02108+Q02153). As to the kind of experiment: CHO cellular assay (cGMP production, Cisbio cGMP HTRF kit). It counts as cell-based. Conditions: CHO GUCY clone 8E10, cGMP production, assay buffer with 1 mM IBMX and 20 uM ODQ, 1 h room temperature; minimum quantification limit 0.5 nM (listed 0.5 nM means ≤0.5 nM); read-out: EC50. From the text: Chinese hamster ovary (CHO) cells overexpressing soluble guanylate cyclase were generated to test the effect of sGC activators in a cellular context. Human cDNAs for GUCYA3 (RefSeq: NM_000856.3) and GUCYB3 (RefSeq: NM_000857.1) were amplified by PCR from a HUVEC (Human Umbilical Vein Endothelial Cells) cDNA library and cloned into mammalian expression vectors. CHO K1 cells (ATCC CCL-61) were transfected using Lipofectamine 2000 following manufacturer's instructions and stably expressing clones were identified by antibiotic selection. CHO GUCY clone 8E10 was used for subsequent experiments. Cells were seeded at a density of 3000 cells/well in white 384-well proxyplates (Perkin Elmer) and incubated overnight, then the medium was removed and cells were washed with assay buffer (HBSS, 0.1% BSA. 1 mM IBMX, 20 uM ODQ). sGC activators were serially diluted in DMSO, then diluted in assay buffer prior to adding to cells (10 ul/well, final DMSO concentration 0.5%). Cells were incubated with compounds for 1 h room temperature, then assayed for cGMP production using Cisbio cGMP HTRF kit (62GM2PEC) according to manufacturer's instructions. The EC50s are calculated based on the amount of cGMP interpolated from the standard curve, using a 4-parameter sigmoidal dose-response.
soluble guanylate cyclase (human GUCYA3 and GUCYB3) overexpressed in CHO cells, sequence (Q02108 whole entry partner): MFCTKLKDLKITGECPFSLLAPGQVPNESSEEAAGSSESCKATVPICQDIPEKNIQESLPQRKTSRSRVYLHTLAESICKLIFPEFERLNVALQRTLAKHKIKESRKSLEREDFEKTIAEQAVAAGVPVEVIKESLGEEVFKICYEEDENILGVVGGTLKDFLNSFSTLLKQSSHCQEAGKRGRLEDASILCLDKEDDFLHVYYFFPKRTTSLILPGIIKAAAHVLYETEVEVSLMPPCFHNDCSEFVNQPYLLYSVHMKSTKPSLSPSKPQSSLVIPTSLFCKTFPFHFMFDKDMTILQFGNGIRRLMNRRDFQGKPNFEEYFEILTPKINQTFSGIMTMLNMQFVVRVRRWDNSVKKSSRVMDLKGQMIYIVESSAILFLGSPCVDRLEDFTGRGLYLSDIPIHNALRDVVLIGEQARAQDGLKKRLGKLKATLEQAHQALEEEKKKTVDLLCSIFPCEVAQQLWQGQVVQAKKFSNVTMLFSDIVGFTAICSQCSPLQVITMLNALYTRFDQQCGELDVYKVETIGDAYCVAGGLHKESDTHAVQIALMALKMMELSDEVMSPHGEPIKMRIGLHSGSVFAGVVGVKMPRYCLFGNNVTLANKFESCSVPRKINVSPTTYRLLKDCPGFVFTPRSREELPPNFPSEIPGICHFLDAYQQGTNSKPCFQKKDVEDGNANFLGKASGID
soluble guanylate cyclase (human GUCYA3 and GUCYB3) overexpressed in CHO cells, sequence (Q02153 whole entry): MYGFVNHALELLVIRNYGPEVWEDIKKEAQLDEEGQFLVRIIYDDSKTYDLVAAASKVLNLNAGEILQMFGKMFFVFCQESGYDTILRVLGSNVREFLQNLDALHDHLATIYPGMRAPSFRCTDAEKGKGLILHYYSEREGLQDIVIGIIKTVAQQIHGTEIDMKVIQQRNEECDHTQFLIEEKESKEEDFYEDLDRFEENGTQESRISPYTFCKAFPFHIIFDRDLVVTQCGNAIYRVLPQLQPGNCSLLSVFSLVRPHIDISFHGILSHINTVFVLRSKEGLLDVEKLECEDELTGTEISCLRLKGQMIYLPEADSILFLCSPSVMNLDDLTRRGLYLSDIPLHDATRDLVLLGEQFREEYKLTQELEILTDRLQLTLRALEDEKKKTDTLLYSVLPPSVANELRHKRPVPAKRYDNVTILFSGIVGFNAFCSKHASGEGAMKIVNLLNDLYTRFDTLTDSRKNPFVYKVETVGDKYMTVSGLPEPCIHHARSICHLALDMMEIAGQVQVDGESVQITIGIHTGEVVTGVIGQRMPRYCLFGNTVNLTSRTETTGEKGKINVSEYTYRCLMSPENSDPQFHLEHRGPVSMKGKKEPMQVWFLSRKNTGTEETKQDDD
For orientation: Time-resolved FRET reads energy transfer from a long-lived donor to a nearby acceptor.

For `CCc1cc(NC2CCc3cccc(-c4cccc(-n5ncc(C(=O)O)c5CC)n4)c32)ccc1C1CCN(C(=O)CC2CC2)CC1` (single isomer, unassigned; (+)) [(+)-53-2, (+)-1-(6-(3-((4-(1-(2-cyclopropylacetyl)piperidin-4-yl)-3-ethylphenyl)amino)-2,3-dihydro-1H-inden-4-yl)pyridin-2-yl)-5-ethyl-1H-pyrazole-4-carboxylic acid], the EC50 came out at 1 nM.

As for `Cc1cc(C2CCN(C(=O)CC3CC3)CC2)cc(F)c1NC1CCc2cccc(-c3cccc(-n4ncc(C(=O)O)c4C)n3)c21` (single isomer, unassigned; (+)) [(+)-53-3, (+)-1-(6-(3-((4-(1-(2-cyclopropyacetyl)piperidin-4-yl)-2-fluoro-6-methylphenyl)amino)-2,3-dihydro-1H-inden-4-yl)pyridin-2-yl)-5-methyl-1H-pyrazole-4-carboxylic acid], the EC50 was 3.5 nM.

Take `Cc1cc(C2CCN(C(=O)C3CC3)CC2)ccc1NC1CCc2cccc(-c3cccc(-n4ncc(C(=O)O)c4C(F)F)n3)c21` (single isomer, unassigned; (+)) [(+)-53-4, (+)-1-(6-(3-((4-(1-(cyclopropanecarbonyl)piperidin-4-yl)-2-methylphenyl)amino)-2,3-dihydro-1H-inden-4-yl)pyridin-2-yl)-5-(difluoromethyl)-1H-pyrazole-4-carboxylic acid]: the EC50 was at most 0.5 nM.

`Cc1cc(C2CCN(C(=O)C3CC3)CC2)ccc1OC1CCc2cccc(-c3cccc(-n4ncc(C(=O)O)c4C(F)(F)F)n3)c21` (single isomer, unassigned; (+)) [Example 3a, (+)-1-(6-(3-(4-(1-(cyclopropanecarbonyl)piperidin-4-yl)-2-methylphenoxy)-2,3-dihydro-1H-inden-4-yl)pyridin-2-yl)-5-(trifluoromethyl)-1H-pyrazole-4-carboxylic Acid]: the EC50 worked out at 1 nM.

With `O=C(O)c1cnn(-c2cccc(-c3cccc4c3C(Oc3ccc5c(c3)CCN(Cc3ccccn3)C5)CC4)n2)c1C(F)(F)F` (single isomer, unassigned; (+)) [Example 4a, (+)-1-(6-(3-((2-(pyridin-2-ylmethyl)-1,2,3,4-tetrahydroisoquinolin-6-yl)oxy)-2,3-dihydro-1H-inden-4-yl)pyridin-2-yl)-5-(trifluoromethyl)-1H-pyrazole-4-carboxylic Acid], the EC50 was 2.4 nM.

In the case of `Cc1cc(C2CCN(C(=O)C3CC3)CC2)ccc1NC1CCc2cccc(-c3cccc(-n4ncc(C(=O)O)c4C(F)(F)F)c3)c21` (single isomer, unassigned; (+)) [Example 6. b). (+), (+)-1-(3-(3-((4-(1-(cyclopropanecarbonyl)piperidin-4-yl)-2-methylphenyl)amino)-2,3-dihydro-1H-inden-4-yl)phenyl)-5-(trifluoromethyl)-1H-pyrazole-4-carboxylic acid], the EC50 was at most 0.5 nM.

As to `Cc1cc(C2CCN(C(=O)C3CC3)CC2)ccc1NC1CCc2cccc(-c3cccc(-n4ncc(C(=O)O)c4C)n3)c21` (single isomer, unassigned; (+)) [Example 7a, (+)-1-(6-(3-((4-(1-(cyclopropanecarbonyl)piperidin-4-yl)-2-methylphenyl)amino)-2,3-dihydro-1H-inden-4-yl)pyridin-2-yl)-5-methyl-1H-pyrazole-4-carboxylic acid], the EC50 was at most 0.5 nM.

As for `Cc1c(C(=O)O)cnn1-c1cccc(-c2cccc3c2C(Nc2ccc(C4CCN(C(=O)C5CC5)CC4)cc2)CC3)n1` (single isomer, unassigned; (+)) [Example 9. b). (+), (+)-1-(6-(3-((4-(1-(cyclopropanecarbonyl)piperidin-4-yl)phenyl)amino)-2,3-dihydro-1H-inden-4-yl)pyridin-2-yl)-5-methyl-1H-pyrazole-4-carboxylic acid], the EC50 is at most 0.5 nM.

Regarding `CCc1c(C(=O)O)cnn1-c1cccc(-c2cccc3c2C(Nc2ccc(C4CCN(C(=O)C5CC5)CC4)cc2C)CC3)n1` (single isomer, unassigned; (+)) [Example 10a], the EC50 is at most 0.5 nM.

In the case of `CCc1cc(CN2CC(C)c3cccc(-c4cccc(-n5ncc(C(=O)O)c5C(F)(F)F)n4)c32)ccc1C1CCN(C(=O)C2CC2)CC1` (single isomer, unassigned; (+)) [Example 19a], the EC50 was at most 0.5 nM.

For the compound `CCc1cc(CN2c3c(cccc3-c3cccc(-n4ncc(C(=O)O)c4CC)n3)CC2C)ccc1C1CCN(C(=O)C2CC2)CC1` (single isomer, unassigned; (+)) [Example 22a, (+)-1-(6-(1-(4-(1-(Cyclopropanecarbonyl)piperidin-4-yl)-3-ethylbenzyl)-2-methylindolin-7-yl)pyridin-2-yl)-6-ethyl-1H-pyrazole-4-carboxylic Acid], the EC50 amounted to 1 nM.

As to `Cc1cc(C2CCN(C(=O)C3CC3)CC2)ccc1NC1COc2cccc(-c3cccc(-n4ncc(C(=O)O)c4C)n3)c21` (single isomer, unassigned; (+)) [Example 34a, (+)-1-(6-(3-((4-(1-(Cyclopropanecarbonyl)piperidin-4-yl)-2-methylphenyl)amino)-2,3-dihydrobenzofuran-4-yl)pyridin-2-yl)-5-methyl-1H-pyrazole-4-carboxylic Acid], the EC50 is at most 0.5 nM.

For `Cc1cc(C2CCN(C(=O)[C@H](C)O)CC2)ccc1NC1COc2cccc(-c3cccc(-n4ncc(C(=O)O)c4C)n3)c21` (single isomer, unassigned; (+)) [Example 35a], the EC50 is at most 0.5 nM.

Consider `Cc1cc(C2CCN(C(=O)C3CC3)CC2)ccc1CC1CCc2cccc(-c3cccc(-n4ncc(C(=O)O)c4C)n3)c21` (single isomer, unassigned; (+)) [Example 37. b). (+), (+)-1-(6-(3-(4-(1-(Cyclopropanecarbonyl)piperidin-4-yl)-2-methylbenzyl)-2,3-dihydro-1H-inden-4-yl)pyridin-2-yl)-5-methyl-1H-pyrazole-4-carboxylic acid], for which the concentration giving a half-maximal response (EC50) was at most 0.5 nM.

Regarding `CCc1cc(CC2CCc3cccc(-c4cccc(-n5ncc(C(=O)O)c5CC)n4)c32)ccc1C1CCN(C(=O)[C@H](C)O)CC1` (single isomer, unassigned; (+)) [Example 39. b). (+)], the EC50 is at most 0.5 nM.

Turning to `CCc1cc(CC2CCc3cccc(-c4cccc(-n5ncc(C(=O)O)c5CC)n4)c32)ccc1C1CCN(C(=O)OC)CC1` (single isomer, unassigned; (+)) [Example 41. b). (+), (+)-5-ethyl-1-(6-(3-(3-ethyl-4-(1-(methoxycarbonyl)piperidin-4-yl)benzyl)-2,3-dihydro-1H-inden-4-yl)pyridin-2-yl)-1H-pyrazole-4-carboxylic acid], the concentration for a half-maximal effect (EC50) is at most 0.5 nM.

With `CCc1c(C(=O)O)cnn1-c1cccc(-c2cccc3c2C(Cc2ccc(C4CCN(C(=O)OC)CC4)cc2C)CC3)n1` (single isomer, unassigned; (+)) [Example 42. b). (+), (+)-5-ethyl-1-(6-(3-(4-(1-(methoxycarbonyl)piperidin-4-yl)-2-methylbenzyl)-2,3-dihydro-1H-inden-4-yl)pyridin-2-yl)-1H-pyrazole-4-carboxylic acid], the EC50 is at most 0.5 nM.

`Cc1cc(C2CCN(C(=O)C3CCC3)CC2)ccc1NC1CCc2cccc(-c3cccc(-n4ncc(C(=O)O)c4C)n3)c21` (single isomer, unassigned; (+)) [Example 45a]: the EC50 is at most 0.5 nM.

As for `Cc1cc(C2CCN(C(=O)[C@H](C)O)CC2)ccc1NC1CCc2cccc(-c3cccc(-n4ncc(C(=O)O)c4C)n3)c21` (single isomer, unassigned; (+)) [Example 47a], the EC50 is at most 0.5 nM.

Take `CCc1cc(NC2CCc3cccc(-c4cccc(-n5ncc(C(=O)O)c5CC)n4)c32)ccc1C1CCN(C(=O)[C@H](C)O)CC1` (single isomer, unassigned; (+)) [Example 48a]: the EC50 was at most 0.5 nM.

As for `CCC[C@H](O)C(=O)N1CCC(c2ccc(NC3CCc4cccc(-c5cccc(-n6ncc(C(=O)O)c6CC)n5)c43)cc2CC)CC1` (single isomer, unassigned; (+)) [Example 49a], the EC50 was at most 0.5 nM.

On to `CCc1cc(NC2CCc3cccc(-c4cccc(-n5ncc(C(=O)O)c5CC)n4)c32)ccc1C1CCN(C(=O)[C@@H](O)CC)CC1` (single isomer, unassigned; (+)) [Example 50a], for which the EC50 was at most 0.5 nM.

On to `CCc1cc(NC2CCc3cccc(-c4cccc(-n5ncc(C(=O)O)c5CC)n4)c32)ccc1C1CCN(C(=O)OC(C)C)CC1` (single isomer, unassigned; (+)) [Example 51a], for which the half-maximal effective concentration (EC50) was at most 0.5 nM.

`Cc1cc(C2CCN(C(=O)C3CC3)CC2)ccc1NC1CCc2cccc(-c3cccc(-n4ncc(C(=O)O)c4C(F)F)c3)c21` (single isomer, unassigned; (+)) [Example 55-2, (+)-1-(3-(3-((4-(1-(Cyclopropanecarbonyl)piperidin-4-yl)-2-methylphenyl)amino)-2,3-dihydro-1H-inden-4-yl)phenyl)-5-(difluoromethyl)-1H-pyrazole-4-carboxylic acid]: the EC50 was at most 0.5 nM.

Turning to `Cc1cc(C2CCN(C(=O)CO)CC2)ccc1NC1CCc2cccc(-c3cccc(-n4ncc(C(=O)O)c4C(F)(F)F)c3)c21` (single isomer, unassigned; (+)) [Example 56], the EC50 stood at 1 nM.

In general, EC50 refers to the midpoint of the concentration-response curve.
